Each block holds one compound with its values, some of them ahead of it. The source made the active and inactive calls.
How the values were obtained:
[1] = target: T1, Trace amine-associated receptor 1 (Homo sapiens, UniProt Q96RJ0); test: Counterscreen for agonists of the human trace amine associated receptor 1 (hTAAR1): Fluorescence-based cell-based high throughput dose response assay to identify hTAAR1 agonist that also desensitize TAAR1 receptor response.; assay type: functional
T1 sequence (Q96RJ0 whole entry): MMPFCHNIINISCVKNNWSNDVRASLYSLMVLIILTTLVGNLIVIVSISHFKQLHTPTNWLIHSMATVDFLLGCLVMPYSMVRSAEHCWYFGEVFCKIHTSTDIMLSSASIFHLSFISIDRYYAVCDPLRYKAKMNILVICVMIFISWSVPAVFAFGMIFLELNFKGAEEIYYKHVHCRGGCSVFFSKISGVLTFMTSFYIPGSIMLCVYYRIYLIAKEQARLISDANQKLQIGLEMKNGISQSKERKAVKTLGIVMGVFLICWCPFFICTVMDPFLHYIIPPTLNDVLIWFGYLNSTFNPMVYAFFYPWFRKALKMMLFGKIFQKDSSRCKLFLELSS

[2] = target: T1, Trace amine-associated receptor 1; test: Fluorescence-based cell-based high throughput dose response assay to identify agonists of the human trace amine associated receptor 1 (TAAR1).; assay type: functional
[3] = target: 5-hydroxytryptamine receptor 2A (Mus musculus, UniProt P35363); assay type: functional, cell-based;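 also: CHO-K1 cells with tagged receptor and beta-arrestin; agonist potency measured as compound-induced activation of the receptor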
cells [4] = assay type: functional, cell-based
[5] = target: Voltage-gated inwardly rectifying potassium channel KCNH2 (Homo sapiens, UniProt Q12809); settings: Potency;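 also: confirmatory quantitative high-throughput screen measuring inhibition of hERG channel activity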
cells [6] = assay type: functional, cell-based; remark: listed apart in the source
Mu-type opioid receptor [7] = target: T2, Mu-type opioid receptor (Homo sapiens, UniProt P35372); assay type: functional, cell-based
HeLa = test: ATP-based viability loss in HeLa cells – cell-based, CellTiter-Glo luminescence, cherry-pick samples, cytotoxicity control for MITF activator project, dose response (AID 540259); assay type: functional; settings: Homo sapiens
Protein skinhead-1 = target: T3, Protein skinhead-1 (Caenorhabditis elegans, UniProt P34707); assay type: functional
T3 sequence (P34707 whole entry): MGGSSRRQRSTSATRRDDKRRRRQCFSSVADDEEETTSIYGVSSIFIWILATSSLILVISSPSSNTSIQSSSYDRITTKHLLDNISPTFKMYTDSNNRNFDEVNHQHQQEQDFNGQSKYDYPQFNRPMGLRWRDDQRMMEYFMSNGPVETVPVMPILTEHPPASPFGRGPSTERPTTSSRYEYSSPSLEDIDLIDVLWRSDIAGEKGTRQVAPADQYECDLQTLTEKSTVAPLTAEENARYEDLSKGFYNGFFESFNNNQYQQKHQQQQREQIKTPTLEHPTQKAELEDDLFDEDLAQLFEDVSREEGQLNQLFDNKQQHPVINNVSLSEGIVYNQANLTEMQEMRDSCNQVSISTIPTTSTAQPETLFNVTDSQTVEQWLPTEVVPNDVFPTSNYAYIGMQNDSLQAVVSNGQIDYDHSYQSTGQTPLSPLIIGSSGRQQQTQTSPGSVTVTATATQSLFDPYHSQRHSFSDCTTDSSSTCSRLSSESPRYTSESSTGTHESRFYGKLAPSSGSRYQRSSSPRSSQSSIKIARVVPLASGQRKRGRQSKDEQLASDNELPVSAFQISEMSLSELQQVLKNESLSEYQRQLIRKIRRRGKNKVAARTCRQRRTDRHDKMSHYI

Escherichia coli = test: microbe, parasite or virus in culture
[8] = target: T4, Dual specificity protein phosphatase 6 (Rattus norvegicus, UniProt Q64346)
T4 sequence (Q64346 whole entry): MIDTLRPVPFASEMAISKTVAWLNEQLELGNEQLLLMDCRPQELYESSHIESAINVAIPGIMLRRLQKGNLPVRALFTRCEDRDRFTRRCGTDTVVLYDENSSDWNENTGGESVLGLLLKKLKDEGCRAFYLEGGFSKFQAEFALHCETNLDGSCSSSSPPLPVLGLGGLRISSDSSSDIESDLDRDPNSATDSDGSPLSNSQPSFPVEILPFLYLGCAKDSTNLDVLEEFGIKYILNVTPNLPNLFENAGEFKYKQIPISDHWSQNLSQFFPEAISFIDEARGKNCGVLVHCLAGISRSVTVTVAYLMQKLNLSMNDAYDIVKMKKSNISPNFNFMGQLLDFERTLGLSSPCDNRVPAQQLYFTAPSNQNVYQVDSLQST

[9] = target: Glyceraldehyde-3-phosphate dehydrogenase (Homo sapiens, UniProt P04406)
[10] = target: T5, Tyrosine-protein phosphatase non-receptor type 7 (Homo sapiens, UniProt P35236); assay type: functional
T5 sequence (P35236 whole entry): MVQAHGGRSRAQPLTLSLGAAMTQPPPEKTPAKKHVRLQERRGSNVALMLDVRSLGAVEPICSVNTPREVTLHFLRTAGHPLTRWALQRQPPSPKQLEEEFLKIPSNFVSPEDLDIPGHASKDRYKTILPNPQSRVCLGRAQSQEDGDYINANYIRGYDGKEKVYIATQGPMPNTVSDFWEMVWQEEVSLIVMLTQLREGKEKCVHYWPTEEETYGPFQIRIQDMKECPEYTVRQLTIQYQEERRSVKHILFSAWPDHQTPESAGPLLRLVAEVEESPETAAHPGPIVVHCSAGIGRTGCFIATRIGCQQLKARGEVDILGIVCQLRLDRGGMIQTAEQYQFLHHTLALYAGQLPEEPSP

[11] = target: T4, Dual specificity protein phosphatase 6; assay type: functional
Mu-type opioid receptor [12] = target: T2, Mu-type opioid receptor; test: (§1) Counterscreen for agonists of heterodimerization of the mu 1 (OPRM1) and delta 1 (OPRD1) opioid receptors: Luminescence-based cell-based high throughput dose response assay to identify agonists of OPRM1 homodimerization.; assay type: functional
[13] = target: 5-hydroxytryptamine receptor 5A (Homo sapiens, UniProt P47898); test: Counterscreen for agonists of OPRM1-OPRD1 heterodimerization: luminescence-based cell-based high throughput dose response assay to identify agonists of 5-hydroxytryptamine (serotonin) 5A receptor (HTR5A). [Related pubchem assays (depositor defined):AID504326, AID504355, AID504692, AID504904, AID504905]; assay type: functional
[14] = general cell-killing toxicity readout – plate reader, dry powder samples, cytotoxicity control for PAX8 inhibitor project, dose response (AID 743021); assay type: functional, cell-based
[15] = target: Delta-type opioid receptor (Homo sapiens, UniProt P41143); test: as §1, with “of OPRD1” for “of OPRM1”, “homodimerization. [Related pubchem assays (depositor defined):AID504326, AID504355, AID504692, AID504904, AID504905]” for “homodimerization.”; assay type: functional
Hexokinase HKDC1 = target: T6, Hexokinase HKDC1 (Homo sapiens, UniProt Q2TB90); test: analog inhibition of human HKDC1 activity – biochemical, set 2, SAR follow-up (AID 588355); assay type: functional
T6 sequence (Q2TB90 whole entry): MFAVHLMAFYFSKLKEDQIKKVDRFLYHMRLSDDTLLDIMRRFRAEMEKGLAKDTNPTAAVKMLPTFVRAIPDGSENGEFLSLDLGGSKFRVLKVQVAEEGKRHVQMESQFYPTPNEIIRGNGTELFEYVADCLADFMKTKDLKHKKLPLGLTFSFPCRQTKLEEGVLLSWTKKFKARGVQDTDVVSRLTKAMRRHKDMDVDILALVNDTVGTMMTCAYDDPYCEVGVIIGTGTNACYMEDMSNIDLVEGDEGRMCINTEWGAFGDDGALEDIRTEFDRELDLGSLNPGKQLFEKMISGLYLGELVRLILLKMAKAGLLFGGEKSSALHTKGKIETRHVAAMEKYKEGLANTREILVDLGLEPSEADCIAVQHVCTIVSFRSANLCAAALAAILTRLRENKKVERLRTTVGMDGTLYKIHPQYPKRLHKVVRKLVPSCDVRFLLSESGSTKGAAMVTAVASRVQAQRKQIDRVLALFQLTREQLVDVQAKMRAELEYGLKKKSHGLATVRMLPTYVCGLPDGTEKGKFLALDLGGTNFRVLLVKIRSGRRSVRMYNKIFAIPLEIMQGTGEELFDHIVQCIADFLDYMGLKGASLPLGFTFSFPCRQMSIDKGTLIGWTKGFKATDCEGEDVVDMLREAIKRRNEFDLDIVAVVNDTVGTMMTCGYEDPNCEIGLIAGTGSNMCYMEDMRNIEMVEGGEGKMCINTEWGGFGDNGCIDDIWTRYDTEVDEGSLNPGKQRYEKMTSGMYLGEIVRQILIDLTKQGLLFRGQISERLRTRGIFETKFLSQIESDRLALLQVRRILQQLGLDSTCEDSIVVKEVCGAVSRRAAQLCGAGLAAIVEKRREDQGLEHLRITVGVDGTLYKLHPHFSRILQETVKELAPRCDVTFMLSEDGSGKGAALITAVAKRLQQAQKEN

Hexokinase-1 = target: T7, Hexokinase-1 (Homo sapiens, UniProt P19367); test: hexokinase 1 activity inhibitors, potency – biochemical, set 2, resazurin fluorescence coupled readout, selectivity assay for HKDC1 inhibitor project, SAR follow-up (AID 588356); assay type: functional
T7 sequence (P19367 whole entry): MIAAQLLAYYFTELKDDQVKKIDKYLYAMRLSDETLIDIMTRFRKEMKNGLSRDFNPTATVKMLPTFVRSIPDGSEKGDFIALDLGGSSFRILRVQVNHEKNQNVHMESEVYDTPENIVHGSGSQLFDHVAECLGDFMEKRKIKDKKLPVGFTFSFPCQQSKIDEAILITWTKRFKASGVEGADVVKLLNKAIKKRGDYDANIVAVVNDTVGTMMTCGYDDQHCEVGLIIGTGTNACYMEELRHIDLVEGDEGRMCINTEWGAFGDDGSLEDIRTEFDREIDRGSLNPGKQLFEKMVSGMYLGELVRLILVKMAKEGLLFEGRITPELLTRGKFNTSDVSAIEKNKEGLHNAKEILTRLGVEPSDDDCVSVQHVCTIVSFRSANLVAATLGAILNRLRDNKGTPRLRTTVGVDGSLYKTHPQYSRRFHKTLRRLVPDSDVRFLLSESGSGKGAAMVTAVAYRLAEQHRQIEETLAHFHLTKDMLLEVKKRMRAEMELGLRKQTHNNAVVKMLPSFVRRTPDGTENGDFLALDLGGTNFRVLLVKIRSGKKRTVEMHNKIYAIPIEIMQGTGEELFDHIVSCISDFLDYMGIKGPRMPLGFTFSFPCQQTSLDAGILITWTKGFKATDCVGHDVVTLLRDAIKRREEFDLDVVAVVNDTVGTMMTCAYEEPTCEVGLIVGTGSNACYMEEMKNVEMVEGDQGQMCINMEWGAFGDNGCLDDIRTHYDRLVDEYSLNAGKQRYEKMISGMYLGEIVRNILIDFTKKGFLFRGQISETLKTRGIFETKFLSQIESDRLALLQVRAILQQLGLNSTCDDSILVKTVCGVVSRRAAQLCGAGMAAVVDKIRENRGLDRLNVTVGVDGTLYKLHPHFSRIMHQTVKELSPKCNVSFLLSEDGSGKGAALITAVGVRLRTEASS

[16] = target: Melanin-concentrating hormone receptor 1 (Homo sapiens, UniProt Q99705); test: Fluorescence-based counterscreen for antagonists of the G-protein coupled receptor 7 (GPR7): cell-based high throughput dose response assay to identify antagonists of the melanin-concentrating hormone receptor 1 (MCHR1).; assay type: functional
[17] = target: T8, Neuropeptides B/W receptor type 1 (Homo sapiens, UniProt P48145); test: Fluorescence-based dose response cell-based high throughput screening assay to identify antagonists of the G-protein coupled receptor 7 (GPR7). [Related pubchem assays: 1952 (Screening assay (GPR7 antagonists).), 1880 (Summary AID.)]; assay type: functional
T8 sequence (P48145 whole entry): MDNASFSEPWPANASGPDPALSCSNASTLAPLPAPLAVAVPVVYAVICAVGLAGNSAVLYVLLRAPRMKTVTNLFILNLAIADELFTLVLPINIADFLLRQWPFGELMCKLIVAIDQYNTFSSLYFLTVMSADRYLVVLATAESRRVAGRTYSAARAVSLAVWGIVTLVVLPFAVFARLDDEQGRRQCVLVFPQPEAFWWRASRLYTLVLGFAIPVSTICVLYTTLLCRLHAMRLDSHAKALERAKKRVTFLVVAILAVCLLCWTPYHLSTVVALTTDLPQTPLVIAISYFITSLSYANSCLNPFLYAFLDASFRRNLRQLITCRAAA

T2 sequence (P35372 whole entry): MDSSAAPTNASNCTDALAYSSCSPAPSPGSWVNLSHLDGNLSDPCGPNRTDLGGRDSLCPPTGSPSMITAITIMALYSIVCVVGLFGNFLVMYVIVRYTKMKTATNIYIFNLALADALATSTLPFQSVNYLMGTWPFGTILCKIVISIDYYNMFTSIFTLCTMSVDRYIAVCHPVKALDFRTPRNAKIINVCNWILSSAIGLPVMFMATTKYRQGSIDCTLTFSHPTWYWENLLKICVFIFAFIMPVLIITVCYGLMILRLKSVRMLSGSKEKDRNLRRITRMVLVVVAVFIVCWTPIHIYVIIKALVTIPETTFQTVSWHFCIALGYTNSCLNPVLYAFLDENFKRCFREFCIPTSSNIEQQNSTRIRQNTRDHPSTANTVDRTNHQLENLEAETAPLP
Sequence of Delta-type opioid receptor (P41143 whole entry): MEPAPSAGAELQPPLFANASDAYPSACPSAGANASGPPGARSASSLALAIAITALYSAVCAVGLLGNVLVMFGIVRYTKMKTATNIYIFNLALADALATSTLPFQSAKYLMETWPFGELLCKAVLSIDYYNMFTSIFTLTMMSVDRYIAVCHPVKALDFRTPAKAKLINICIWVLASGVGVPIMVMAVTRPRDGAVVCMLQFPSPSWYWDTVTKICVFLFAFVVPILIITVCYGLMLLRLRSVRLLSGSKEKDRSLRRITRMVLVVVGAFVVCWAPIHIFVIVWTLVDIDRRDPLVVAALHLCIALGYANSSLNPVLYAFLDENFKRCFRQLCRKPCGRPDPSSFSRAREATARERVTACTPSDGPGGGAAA
Sequence of Voltage-gated inwardly rectifying potassium channel KCNH2 (Q12809 whole entry): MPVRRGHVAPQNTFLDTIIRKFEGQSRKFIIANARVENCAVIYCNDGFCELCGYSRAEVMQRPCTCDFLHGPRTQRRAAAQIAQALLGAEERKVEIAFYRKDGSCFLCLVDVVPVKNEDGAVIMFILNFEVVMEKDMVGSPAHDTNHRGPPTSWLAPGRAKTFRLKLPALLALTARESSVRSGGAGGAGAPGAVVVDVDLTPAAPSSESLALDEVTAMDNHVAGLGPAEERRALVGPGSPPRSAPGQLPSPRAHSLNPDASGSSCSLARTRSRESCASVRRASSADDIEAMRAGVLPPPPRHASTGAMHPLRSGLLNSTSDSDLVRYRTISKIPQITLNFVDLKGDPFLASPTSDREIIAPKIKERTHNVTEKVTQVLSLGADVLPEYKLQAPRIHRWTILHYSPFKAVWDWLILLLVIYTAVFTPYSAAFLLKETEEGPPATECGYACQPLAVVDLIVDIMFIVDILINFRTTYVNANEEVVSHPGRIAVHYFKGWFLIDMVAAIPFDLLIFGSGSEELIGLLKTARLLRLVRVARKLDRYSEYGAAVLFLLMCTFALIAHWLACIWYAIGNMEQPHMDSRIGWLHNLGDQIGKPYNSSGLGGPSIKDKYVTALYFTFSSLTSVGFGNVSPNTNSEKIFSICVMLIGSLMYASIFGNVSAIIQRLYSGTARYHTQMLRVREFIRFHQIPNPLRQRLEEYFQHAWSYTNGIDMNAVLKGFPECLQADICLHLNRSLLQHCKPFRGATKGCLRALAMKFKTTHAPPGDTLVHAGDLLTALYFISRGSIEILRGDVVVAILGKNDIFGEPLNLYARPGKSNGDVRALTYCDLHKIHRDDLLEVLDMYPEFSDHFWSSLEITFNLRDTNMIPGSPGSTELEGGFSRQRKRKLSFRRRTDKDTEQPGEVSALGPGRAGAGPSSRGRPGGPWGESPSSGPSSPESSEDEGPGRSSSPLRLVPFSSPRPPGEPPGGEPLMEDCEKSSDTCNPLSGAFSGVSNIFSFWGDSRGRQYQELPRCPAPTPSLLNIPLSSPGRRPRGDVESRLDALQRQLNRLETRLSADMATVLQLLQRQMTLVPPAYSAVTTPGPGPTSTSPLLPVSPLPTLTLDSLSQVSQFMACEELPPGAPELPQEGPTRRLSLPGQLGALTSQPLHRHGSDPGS
Sequence of 5-hydroxytryptamine receptor 5A (P47898 whole entry): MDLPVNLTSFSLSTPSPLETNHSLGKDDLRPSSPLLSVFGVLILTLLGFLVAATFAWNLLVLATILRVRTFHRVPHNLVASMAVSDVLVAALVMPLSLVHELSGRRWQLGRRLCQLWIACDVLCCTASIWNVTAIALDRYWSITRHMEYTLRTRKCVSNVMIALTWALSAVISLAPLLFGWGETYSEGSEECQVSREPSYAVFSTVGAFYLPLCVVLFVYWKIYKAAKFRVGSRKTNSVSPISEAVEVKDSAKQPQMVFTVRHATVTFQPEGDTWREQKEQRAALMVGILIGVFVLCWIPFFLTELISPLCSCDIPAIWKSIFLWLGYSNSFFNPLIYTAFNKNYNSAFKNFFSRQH
Sequence of Glyceraldehyde-3-phosphate dehydrogenase (P04406 whole entry): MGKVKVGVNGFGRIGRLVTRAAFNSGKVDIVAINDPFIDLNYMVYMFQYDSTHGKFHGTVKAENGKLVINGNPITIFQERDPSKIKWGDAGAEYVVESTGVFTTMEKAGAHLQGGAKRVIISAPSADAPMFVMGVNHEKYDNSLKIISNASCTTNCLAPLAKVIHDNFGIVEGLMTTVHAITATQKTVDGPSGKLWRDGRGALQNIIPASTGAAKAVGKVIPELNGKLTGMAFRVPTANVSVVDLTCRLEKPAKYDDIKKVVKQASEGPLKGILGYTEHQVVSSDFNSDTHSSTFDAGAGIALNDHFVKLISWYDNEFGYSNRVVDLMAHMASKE
Sequence of Melanin-concentrating hormone receptor 1 (Q99705 whole entry): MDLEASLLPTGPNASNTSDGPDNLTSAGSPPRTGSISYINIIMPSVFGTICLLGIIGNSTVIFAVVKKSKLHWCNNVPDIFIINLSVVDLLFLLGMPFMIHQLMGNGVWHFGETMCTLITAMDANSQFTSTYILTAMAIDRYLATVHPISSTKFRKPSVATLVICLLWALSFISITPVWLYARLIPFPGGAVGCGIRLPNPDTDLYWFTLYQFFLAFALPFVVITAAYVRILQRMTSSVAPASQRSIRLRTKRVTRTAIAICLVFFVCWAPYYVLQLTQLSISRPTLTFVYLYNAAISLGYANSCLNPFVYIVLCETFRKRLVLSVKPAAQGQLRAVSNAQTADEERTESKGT
Sequence of 5-hydroxytryptamine receptor 2A (P35363 whole entry): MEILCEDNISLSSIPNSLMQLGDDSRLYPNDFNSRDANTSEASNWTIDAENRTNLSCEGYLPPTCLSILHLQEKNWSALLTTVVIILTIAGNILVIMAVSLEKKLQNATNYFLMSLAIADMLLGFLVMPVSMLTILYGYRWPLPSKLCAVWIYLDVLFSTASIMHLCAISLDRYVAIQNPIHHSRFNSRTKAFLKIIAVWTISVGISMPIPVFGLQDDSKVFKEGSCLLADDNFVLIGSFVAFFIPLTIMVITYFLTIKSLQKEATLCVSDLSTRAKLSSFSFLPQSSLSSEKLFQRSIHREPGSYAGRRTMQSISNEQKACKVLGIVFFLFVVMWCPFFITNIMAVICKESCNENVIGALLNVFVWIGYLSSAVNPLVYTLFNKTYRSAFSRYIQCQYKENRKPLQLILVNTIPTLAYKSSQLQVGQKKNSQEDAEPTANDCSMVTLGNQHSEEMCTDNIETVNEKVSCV

Structure (SMILES): Oc1ccc(C2CNCc3sccc32)cc1O (stereo not drawn)
IC50 [1]: 4.33 µM (active)
EC50 [2]: 0.752 µM (active)
EC50 [3]: 0.452 µM (active)
EC50 (cells [4]): > 29.9 µM (inactive)
AC50 [5]: 11.2 µM (inconclusive)
IC50 (cells [6]): > 29.9 µM (inactive)
EC50 (Mu-type opioid receptor [7]): 92.5 µM (inactive)

Structure (SMILES): COc1ccc(C(=O)NN=C(NS(=O)(=O)c2ccc(C)cc2)c2ccccc2)cc1
AC50 (HeLa): 55.4 µM (active)
IC50 (Protein skinhead-1): > 100 µM (inactive)

Structure (SMILES): CC(C)OCC(O)CN1CCN(CC(O)COc2ccc3c(c2)OCO3)CC1 (stereo not drawn)
AC50 (Escherichia coli): 62.7 µM (active)

Structure (SMILES): COc1ccc2cc(-c3nc4ccccc4n3C)c(=O)oc2c1
AC50 (HeLa): 174 µM (active)

Structure (SMILES): COc1cc(Cl)ccc1OCc1cc(C(=O)NCC(C)(C)N2CCOCC2)no1
AC50 (Escherichia coli): 33.9 µM (active)

IC50 [8]: > 100 µM (inactive)
IC50 [9]: > 100 µM (not active)
IC50 [10]: > 100 µM (not active)
IC50 [11]: > 100 µM (inactive)
Structure (SMILES): CCCn1c(=O)nc(NCCc2ccccc2)[nH]c1=O

Structure (SMILES): COc1ccc(C2Nc3ccccc3C(=O)N2c2ccc(F)cc2)cc1CSc1ccccn1 (stereo not drawn)
EC50 (Mu-type opioid receptor [12]): > 92.4 µM (inactive)
EC50 [13]: > 92.4 µM (inactive)
AC50 [14]: 48.8 µM (active)
EC50 [15]: > 30.8 µM (inactive)

IC50 (Hexokinase HKDC1): > 80 µM (inactive)
IC50 (Hexokinase-1): > 80 µM (inactive)
IC50 [16]: > 43.8 µM (not active)
IC50 [17]: > 43.8 µM (not active)
Structure (SMILES): CCCCN1C(=O)C(NC(C)=O)c2cc(Br)ccc21 (stereo not drawn)

EC50 (Mu-type opioid receptor [12]): > 92.5 µM (inactive)
EC50 [13]: > 92.5 µM (inactive)
EC50 [15]: > 92.5 µM (inactive)
Structure (SMILES): CCOC(=O)c1c(C)[nH]c(C(=O)OC/C(O)=C(\C#N)c2nc3ccccc3[nH]2)c1C

Structure (SMILES): CC1CC(OC(=O)c2ccccc2O)CC(C)(C)C1 (stereo not drawn) [HOMOSALATE]
AC50 [5]: 6.31 µM (inconclusive)
